US20230013823A1, “INHIBITORS OF HUMAN IMMUNODEFICIENCY VIRUS REPLICATION” (VIV HEALTHCARE UK (No. 5) LIMITED, priority 2019, published 2023)

What was measured:
[1] = tested on: recombinant NL4-3 virus (Renilla luciferase in nef); test: HIV cell culture assay (antiviral activity, luciferase readout in MT-2 cells); format: cell-based; details: Renilla, NL43
Outline: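 MT-2 cells were infected for 4-5 days with 293T-derived recombinant NL4-3 reporter virus in the presence of serially diluted compound. Antiviral activity was quantified as luciferase activity using a live-cell substrate. EC50 was derived from the median effect equation.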

[2] = Compound cytotoxicity, XTT-based colorimetric assay; format: cell-based; details: human; uninfected MT2 cells, day 4, XTT
Description: Compound cytotoxicity and the corresponding CC50 values were determined using the same protocol as described in the antiviral assay except that uninfected cells were used. Cytotoxicity was assessed on day 4 in uninfected MT2 cells by using an XTT (2,3-bis[2-Methoxy-4-nitro-5-sulfophenyl]-2H-tetrazolium-5-carboxyanilide inner salt)-based colorimetric assay (Sigma-Aldrich, St Louis, Mo.).

Row | Structure (SMILES) | EC50 [1] [nM] | CC50 at 4 days [2] [nM]
1 | Cn1nc(NS(C)(=O)=O)c2c(Cl)ccc(-n3c([C@H](Cc4cc(F)cc(F)c4)NC(=O)Cn4nc(C(F)F)c5c4C(F)(F)[C@@H]4C[C@H]54)nc4cc(-c5cccc(C(C)(F)F)n5)ccc4c3=O)c21 (atropisomer, axis not shown; (P)) [Example 28, N—((S)-1-((3P)-3-(4-chloro-1-methyl-3-(methylsulfonamido)-1H-indazol-7-yl)-7-(6-(1,1-difluoroethyl)pyridin-2-yl)-4-oxo-3,4-dihydroquinazolin-2-yl)-2-(3,5-difluorophenyl)ethyl)-2-((3bS,4aR)-3-(difluoromethyl)-5,5-difluoro-3b,4,4a,5-tetrahydro-1H-cyclopropa[3,4]cyclopenta[1,2-c]pyrazol-1-yl)acetamide] | 0.12 | > 100
2 | Cn1nc(NS(C)(=O)=O)c2c(Cl)ccc(-n3c([C@H](Cc4cc(F)cc(F)c4)NC(=O)Cn4nc(C(F)F)c5c4C(F)(F)[C@@H]4C[C@H]54)nc4cc(-c5ccn(CC(C)(C)C)n5)ccc4c3=O)c21 (atropisomer, axis not shown; (P)) [Example 29, N—((S)-1-((3P)-3-(4-chloro-1-methyl-3-(methylsulfonamido)-1H-indazol-7-yl)-7-(1-neopentyl-1H-pyrazol-3-yl)-4-oxo-3,4-dihydroquinazolin-2-yl)-2-(3,5-difluorophenyl)ethyl)-2-((3bS,4aR)-3-(difluoromethyl)-5,5-difluoro-3b,4,4a,5-tetrahydro-1H-cyclopropa[3,4]cyclopenta[1,2-c]pyrazol-1-yl)acetamide] | 0.21 | > 500
3 | Cn1nc(NS(C)(=O)=O)c2c(Cl)ccc(-n3c([C@H](Cc4cc(F)cc(F)c4)NC(=O)Cn4nc(C(F)F)c5c4C(F)(F)[C@@H]4C[C@H]54)nc4cc(-c5ccc(F)c(C(F)(F)F)n5)ccc4c3=O)c21 (atropisomer, axis not shown; (P)) [Example 30, N—((S)-1-((3P)-3-(4-chloro-1-methyl-3-(methylsulfonamido)-1H-indazol-7-yl)-7-(5-fluoro-6-(trifluoromethyl)pyridin-2-yl)-4-oxo-3,4-dihydroquinazolin-2-yl)-2-(3,5-difluorophenyl)ethyl)-2-((3bS,4aR)-3-(difluoromethyl)-5,5-difluoro-3b,4,4a,5-tetrahydro-1H-cyclopropa[3,4]cyclopenta[1,2-c]pyrazol-1-yl)acetamide] | 0.22 | > 500
4 | Cn1nc(NS(C)(=O)=O)c2c(Cl)ccc(-n3c([C@H](Cc4cc(F)cc(F)c4)NC(=O)Cn4nc(C(F)F)c5c4C(F)(F)[C@H]4C[C@@H]54)nc4cc(-c5ccn(CC6CC6)n5)ccc4c3=O)c21 (atropisomer, axis not shown; (P)) [Example 31, N—((S)-1-((3P)-3-(4-chloro-1-methyl-3-(methylsulfonamido)-1H-indazol-7-yl)-7-(1-(cyclopropylmethyl)-1H-pyrazol-3-yl)-4-oxo-3,4-dihydroquinazolin-2-yl)-2-(3,5-difluorophenyl)ethyl)-2-((3bS,4aR)-3-(difluoromethyl)-5,5-difluoro-3b,4,4a,5-tetrahydro-1H-cyclopropa[3,4]cyclopenta[1,2-c]pyrazol-1-yl)acetamide] | 0.11 | > 500
5 | Cn1nc(NS(C)(=O)=O)c2c(Cl)ccc(-n3c([C@H](Cc4cc(F)cc(F)c4)NC(=O)Cn4nc(C(F)F)c5c4C(F)(F)[C@@H]4C[C@H]54)nc4cc(-n5nccc5C(F)(F)F)ccc4c3=O)c21 (atropisomer, axis not shown; (P)) [Example 32, N—((S)-1-((3P)-3-(4-chloro-1-methyl-3-(methylsulfonamido)-1H-indazol-7-yl)-4-oxo-7-(5-(trifluoromethyl)-1H-pyrazol-1-yl)-3,4-dihydroquinazolin-2-yl)-2-(3,5-difluorophenyl)ethyl)-2-((3bS,4aR)-3-(difluoromethyl)-5,5-difluoro-3b,4,4a,5-tetrahydro-1H-cyclopropa[3,4]cyclopenta[1,2-c]pyrazol-1-yl)acetamide] | 0.079 | > 100
6 | Cn1nc(NS(C)(=O)=O)c2c(Cl)ccc(-n3c([C@H](Cc4cc(F)cc(F)c4)NC(=O)Cn4nc(C(F)F)c5c4C(F)(F)[C@@H]4C[C@H]54)nc4cc(-c5cnn(CC(F)F)c5)ccc4c3=O)c21 (atropisomer, axis not shown; (P)) [Example 34, N—((S)-1-((3P)-3-(4-chloro-1-methyl-3-(methylsulfonamido)-1H-indazol-7-yl)-7-(1-(2,2-difluoroethyl)-1H-pyrazol-4-yl)-4-oxo-3,4-dihydroquinazolin-2-yl)-2-(3,5-difluorophenyl)ethyl)-2-((3bS,4aR)-3-(difluoromethyl)-5,5-difluoro-3b,4,4a,5-tetrahydro-1H-cyclopropa[3,4]cyclopenta[1,2-c]pyrazol-1-yl)acetamide] | 0.054 | > 100
7 | Cn1nc(NS(C)(=O)=O)c2c(Cl)ccc(-n3c([C@H](Cc4cc(F)cc(F)c4)NC(=O)Cn4nc(C(F)F)c5c4C(F)(F)[C@H]4C[C@H]54)nc4cc(-c5cnn(C(F)F)c5)ccc4c3=O)c21 (atropisomer, axis not shown; (P)) [Example 35, N—((S)-1-((3P)-3-(4-chloro-1-methyl-3-(methylsulfonamido)-1H-indazol-7-yl)-7-(1-(difluoromethyl)-1H-pyrazol-4-yl)-4-oxo-3,4-dihydroquinazolin-2-yl)-2-(3,5-difluorophenyl)ethyl)-2-((3bS,4aR)-3-(difluoromethyl)-5,5-difluoro-3b,4,4a,5-tetrahydro-1H-cyclopropa[3,4]cyclopenta[1,2-c]pyrazol-1-yl)acetamide] | 0.092 | > 100
8 | Cc1nc2cc(-c3ccc4c(=O)n(-c5ccc(Cl)c6c(NS(C)(=O)=O)nn(C)c56)c([C@H](Cc5cc(F)cc(F)c5)NC(=O)Cn5nc(C(F)F)c6c5C(F)(F)[C@@H]5C[C@H]65)nc4c3)ccc2s1 (atropisomer, axis not shown; (P)) [Example 36, N—((S)-1-((3P)-3-(4-chloro-1-methyl-3-(methylsulfonamido)-1H-indazol-7-yl)-7-(2-methylbenzo[d]thiazol-5-yl)-4-oxo-3,4-dihydroquinazolin-2-yl)-2-(3,5-difluorophenyl)ethyl)-2-((3bS,4aR)-3-(difluoromethyl)-5,5-difluoro-3b,4,4a,5-tetrahydro-1H-cyclopropa[3,4]cyclopenta[1,2-c]pyrazol-1-yl)acetamide] | 1.8 | > 100
9 | Cn1nc(NS(C)(=O)=O)c2c(Cl)ccc(-n3c([C@H](Cc4cc(F)cc(F)c4)NC(=O)Cn4nc(C(F)F)c5c4C(F)(F)[C@@H]4C[C@H]54)nc4cc(-c5cc(C(C)(F)F)ccn5)ccc4c3=O)c21 (atropisomer, axis not shown; (P)) [Example 37, N—((S)-1-((3P)-3-(4-chloro-1-methyl-3-(methylsulfonamido)-1H-indazol-7-yl)-7-(4-(1,1-difluoroethyl)pyridin-2-yl)-4-oxo-3,4-dihydroquinazolin-2-yl)-2-(3,5-difluorophenyl)ethyl)-2-((3bS,4aR)-3-(difluoromethyl)-5,5-difluoro-3b,4,4a,5-tetrahydro-1H-cyclopropa[3,4]cyclopenta[1,2-c]pyrazol-1-yl)acetamide] | 0.33 | > 100
10 | Cn1nc(NS(C)(=O)=O)c2c(Cl)ccc(-n3c([C@H](Cc4cc(F)cc(F)c4)NC(=O)Cn4nc(C(F)F)c5c4C(F)(F)[C@@H]4C[C@H]54)nc4cc(-n5cc(C(F)(F)F)cn5)ccc4c3=O)c21 (atropisomer, axis not shown; (P)) [Example 38, N—((S)-1-((3P)-3-(4-chloro-1-methyl-3-(methylsulfonamido)-1H-indazol-7-yl)-4-oxo-7-(4-(trifluoromethyl)-1H-pyrazol-1-yl)-3,4-dihydroquinazolin-2-yl)-2-(3,5-difluorophenyl)ethyl)-2-((3bS,4aR)-3-(difluoromethyl)-5,5-difluoro-3b,4,4a,5-tetrahydro-1H-cyclopropa[3,4]cyclopenta[1,2-c]pyrazol-1-yl)acetamide] | 0.17 | > 100
11 | Cn1nc(NS(C)(=O)=O)c2c(Cl)ccc(-n3c([C@H](Cc4cc(F)cc(F)c4)NC(=O)Cn4nc(C(F)F)c5c4C(F)(F)[C@@H]4C[C@H]54)nc4cc(-c5cnn(C6CC6)c5)ccc4c3=O)c21 (atropisomer, axis not shown; (P)) [Example 40, N—((S)-1-((3P)-3-(4-chloro-1-methyl-3-(methylsulfonamido)-1H-indazol-7-yl)-7-(1-cyclopropyl-1H-pyrazol-4-yl)-4-oxo-3,4-dihydroquinazolin-2-yl)-2-(3,5-difluorophenyl)ethyl)-2-((3bS,4aR)-3-(difluoromethyl)-5,5-difluoro-3b,4,4a,5-tetrahydro-1H-cyclopropa[3,4]cyclopenta[1,2-c]pyrazol-1-yl)acetamide] | 0.082 | > 100
12 | Cn1nc(NS(C)(=O)=O)c2c(Cl)ccc(-n3c([C@H](Cc4cc(F)cc(F)c4)NC(=O)Cn4nc(C(F)F)c5c4C(F)(F)[C@@H]4C[C@H]54)nc4cc(-c5cnn(CC(F)(F)F)c5)ccc4c3=O)c21 (atropisomer, axis not shown; (P)) [Example 41, N—((S)-1-((3P)-3-(4-chloro-1-methyl-3-(methylsulfonamido)-1H-indazol-7-yl)-4-oxo-7-(1-(2,2,2-trifluoroethyl)-1H-pyrazol-4-yl)-3,4-dihydroquinazolin-2-yl)-2-(3,5-difluorophenyl)ethyl)-2-((3bS,4aR)-3-(difluoromethyl)-5,5-difluoro-3b,4,4a,5-tetrahydro-1H-cyclopropa[3,4]cyclopenta[1,2-c]pyrazol-1-yl)acetamide] | 0.097 | > 100
